In brackets after ≈: the same amount, converted by molar mass. Where two headings read alike, the source gives them in different places.
How the values were obtained:
Assay type in all cases: cell-based
[1] = Cytotoxicity (MTT) assay of single and dual combinatory drugs; conditions: human; for CC50 at 48 h: CompuSyn, n = 3, read-out: CC50
Description: Each tablet containing drugs was triturated and mixed until homogenous. Approximately 50 mg equivalent mass of drugs were weighed and added to dimethyl sulfoxide in order to solubilize the drugs. The suspension was sonicated in a water bath for 15 minutes before being added to Rosewell Park Memorial Institute (RPMI) media, sonicated again and vortexed to mix it until homogenous. The suspension was then filtered through a polycarbonate membrane with a pore size of 0.45 μm and then a pore size of 0.22 μm under aseptic conditions. The filtrate was mixed with 10% foetal bovine serum and penicillin streptomycin before being vortexed to produce a homogenous mixture to be used as a stock solution. The samples were prepared by diluting the stock solution of each drug with RPMI complete media at an appropriate level of dilution to produce a determined concentration. The dual combinatory drugs mixtures were prepared by mixing appropriate amounts of two drug stock solutions in order to produce a final concentration at the required level. The combinatory drugs were evaluated at both constant and non-constant ratios to evaluate their effects on the cytotoxicity, including; antagonistic, synergistic, or additive. A constant ratio of the mixture was achieved by adding drug solutions at the same ratio, thereby increasing each drug concentration, to produce dose escalation. In contrast, at a non-constant ratio, a fixed determined concentration of drug was added to increased doses of other drug solution in order to produce different levels of drug concentration.
The cytotoxic concentration (CC50) of drugs was performed by means of MTT assay at the Stem Cell Research and Development Center, Universitas Airlangga using human umbilical cord mesenchymal stem cells which had been obtained from human placenta tissue as approved by the Ethical Committee of Universitas Airlangga Hospital (Certificate number 101/KEH/2019 dated January 10, 2019). The cells were prepared as the primary cell culture and used for the cytotoxicity assay because of their sensitivity to chemicals. Cells were seeded into 96-well microplates at a concentration of 1x10^3 cells/well in 100 μL Alpha Minimum Essentials Medium (α-MEM, Gibco, USA) supplemented with 10% foetal bovine serum, 1% penicillin-streptomycin and 1% amphotericin-B. The plates were then incubated in a CO2 incubator at 37°C with 5% CO2 for 24 hours, at which point, the supernatant was replaced with α-MEM containing drugs at each concentration and incubated for a further 48 hours. Approximately 25μL of 3-(4,5-Dimethylthiazol-2-yl)-2,5-diphenyl tetrazolium-bromide (MTT) reagent at a concentration of 5mg/mL was subsequently added to each well and incubated for four hours at 37°C with 5% CO2. Purple formazan crystals were formed and observed under an inverted microscope. Dimethyl sulfoxide was added to each well with the complete solubilisation of formazan crystals subsequently being observed. The greater the number of formazan crystals formed, the lower the toxicity of the samples which were read for optical density of formazan using a multi reader at a measurement wavelength of 595 nm (Promega Glomax, USA). The CC50 value was analyzed by CompuSyn software (the ComboSyn Inc., accessed from www.combosyn.com).
In this study, the cytotoxicity assay was evaluated for single and dual combinatory drugs during a period of 48 hours of drug incubation. This assay was intended to evaluate the toxicity of dual combinatory drugs on normal cells. The combination ratios were calculated taking into consideration the usual therapeutic doses and plasma peak concentrations of the drugs. To determine this cytotoxicity, the drugs were mixed at both constant and non-constant ratios.

SARS-CoV-2 virus = assay: microbe, parasite or virus in culture; conditions: for IC50: Severe acute respiratory syndrome coronavirus 2, Vero
IL-10 = IL-10 level of virus-infected Vero cells (ELISA)
Description: (§1) To enable measurement of IL-6, IL-10 and TNF-α levels, the culture medium of the treated cells was collected in sterile micro-tubes and centrifuged at 3,500 rpm for 20 minutes. The supernatants were carefully collected and diluted with aquadest at a 1:5 volume ratio and vortexed until homogenous. The samples were deposited onto a well-plate, added to ELISA reagents (Bioassay Technology Laboratory, Shanghai, China), and incubated at 37°C for 60 minutes. Reagent substrate solution was then added to the well and incubated for ten minutes at 37°C. The samples were measured for antigen concentration using the optical density (OD) plotted into the standard curves of IL-6, IL-10, and TNF-α.

IL-6 = IL-6 level of virus-infected Vero cells (ELISA)
Description: as §1

TNF-α = TNF-α level of virus-infected Vero cells (ELISA)
Description: as §1

[2] = HYDROXYCHLOROQUINE-AZITHROMYCIN series, read-out: Cell Viability (%)
[3] = HYDROXYCHLOROQUINE-DOXYCYCLINE series, read-out: Cell viability (%)
[4] = HYDROXYCHLOROQUINE-FAVIPIRAVIR series, read-out: Cell Viability (%)
[5] = HYDROXYCHLOROQUINE-LOPIRITO series, read-out: Cell Viability (%)

Structure (SMILES): CCN(CCO)CCCC(C)Nc1ccnc2cc(Cl)ccc12 (stereo not shown) [HCQ, Hydroxychloroquine]
- CC50 at 48 h ([1]; HCQ-AZI experiment (Fig 7)): 5940 µg/mL
- CC50 at 48 h ([1]; HCQ-DOXY experiment (Fig 8)): 1500 µg/mL
- CC50 at 48 h ([1]; HCQ-FAVI experiment (Fig 10)): 11.8 µg/mL
- CC50 at 48 h ([1]; HCQ-LOPIRITO experiment (Fig 11)): 2.51 µg/mL
- viability at 48 h, 0.2 μg/mL [1, 2]: 85.6%
- viability at 48 h, 2 μg/mL [1, 2]: 91%
- viability at 48 h, 10 μg/mL [1, 2]: 94.4%
- viability at 48 h, 100 μg/mL [1, 2]: 46.6%
- viability at 48 h, 400 μg/mL [1, 2]: 68.6%
- viability at 48 h, 0.2 μg/mL [1, 3]: 97.1%
- viability at 48 h, 2 μg/mL [1, 3]: 97%
- viability at 48 h, 10 μg/mL [1, 3]: 98.9%
- viability at 48 h, 100 μg/mL [1, 3]: 62.1%
- viability at 48 h, 400 μg/mL [1, 3]: 56.9%
- viability at 48 h, 0.2 μg/mL [1, 4]: 51.5%
- viability at 48 h, 2 μg/mL [1, 4]: 81.9%
- viability at 48 h, 10 μg/mL [1, 4]: 93.7%
- viability at 48 h, 100 μg/mL [1, 4]: 13.3%
- viability at 48 h, 400 μg/mL [1, 4]: 9.5%
- viability at 48 h, 0.2 μg/mL [1, 5]: 35.9%
- viability at 48 h, 2 μg/mL [1, 5]: 61.7%
- viability at 48 h, 10 μg/mL [1, 5]: 81.4%
- viability at 48 h, 100 μg/mL [1, 5]: 33%
- viability at 48 h, 400 μg/mL [1, 5]: 7.4%
- Virus Titer (SARS-CoV-2 virus; 1 μg/mL, 24-h): 38.64 viral protein fg/mL
- Virus Titer (SARS-CoV-2 virus; 1 μg/mL, 72-h): 37.69 viral protein fg/mL
- Virus Titer (SARS-CoV-2 virus; 15 μg/mL, 48-h): 37.86 viral protein fg/mL
- Drug concentration that produced an undetected virus copy number (SARS-CoV-2 virus; MoI 0.04, at 24, 48, and/or 72 hours' incubation): 37.5 µg/mL
- IC50 (SARS-CoV-2 virus; 24h, MoI 0.04): 9.5 µg/mL (≈ 28.3 µM)
- IC50 (SARS-CoV-2 virus; 48h, MoI 0.04): 4.7 µg/mL (≈ 14 µM)
- IC50 (SARS-CoV-2 virus; 72h, MoI 0.04): 1.4 µg/mL (≈ 4.17 µM)
- Results (virus detection) (SARS-CoV-2 virus; at the drug concentration of the same line of Table 4, MoI 0.04): 48, 72h virus undetected
- IL-10 (IL-10; 1 μg/mL, 24-h): 15.36 ± 0.75 pg/mL
- IL-10 (IL-10; 1 μg/mL, 48-h): 96.36 ± 0.71 pg/mL
- IL-10 (IL-10; 1 μg/mL, 72-h): 329.79 ± 0.08 pg/mL
- IL-10 (IL-10; 15 μg/mL, 24-h): 32.43 ± 1.19 pg/mL
- IL-10 (IL-10; 15 μg/mL, 72-h): 258.02 ± 9.73 pg/mL
- IL-10 (IL-10; 15 μg/mL, 48h): ↗↗ (15 μg/mL; 48h)
- IL-10 levels (in words) (IL-10; Table 5): increased
- IL-6 (IL-6; 1 μg/mL, 24-h): 15.91 ± 0.99 ng/L
- IL-6 (IL-6; 1 μg/mL, 48-h): 36.41 ± 2.01 ng/L
- IL-6 (IL-6; 1 μg/mL, 72-h): 47.64 ± 2.15 ng/L
- IL-6 (IL-6; 1 μg/mL, 24h): ↘↘ (1 μg/mL; 24h)
- IL-6 (IL-6; 15 μg/mL, 24-h): 15.91 ± 1.41 ng/L
- IL-6 (IL-6; 15 μg/mL, 48-h): 36.41 ± 0.89 ng/L
- IL-6 (IL-6; 15 μg/mL, 72-h): 39.80 ± 0.48 ng/L
- IL-6 (in words) (IL-6; Table 5): reduced
- TNF-α (TNF-α; 1 μg/mL, 24-h): 4.21 ± 0.31 pg/mL
- TNF-α (TNF-α; 1 μg/mL, 72-h): 548.17 ± 1.44 pg/mL
- TNF-α (TNF-α; 15 μg/mL, 72-h): 411.10 ± 0.18 pg/mL
- TNF-α (TNF-α; 24, 48, and 72 hours, cell without concentration): No effects
- TNF-α levels (in words) (TNF-α; Table 5): no effects
